Calls of active or inactive are those of the source.
How the values were obtained:
[1] = P. falciparum Dd2 growth inhibitors, dose response, SYBR Green, cherry-picked samples (AID 1159567); format: functional, cell-based
[2] = toxicity to human hepatoma HepG2 cells – cell-based, cherry-picked samples, cytotoxicity control, dose response (AID 1159577); format: functional
fMet-Leu-Phe receptor = fMet-Leu-Phe receptor (Homo sapiens, UniProt P21462); assay: formyl peptide receptor binders – dose response (AID 519); format: functional
[3] = molecular target: T1, Oxysterols receptor LXR-beta (Homo sapiens, UniProt P55055); format: functional, cell-based;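 note: Cell-based luminescence dose-response assay of agonist activity at LXR, run as a confirmatory counterscreen to a daf-12 agonist screen; agonist potency from rising luciferase signal of a Gal4-LXR reporter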
T1 sequence (P55055 whole entry): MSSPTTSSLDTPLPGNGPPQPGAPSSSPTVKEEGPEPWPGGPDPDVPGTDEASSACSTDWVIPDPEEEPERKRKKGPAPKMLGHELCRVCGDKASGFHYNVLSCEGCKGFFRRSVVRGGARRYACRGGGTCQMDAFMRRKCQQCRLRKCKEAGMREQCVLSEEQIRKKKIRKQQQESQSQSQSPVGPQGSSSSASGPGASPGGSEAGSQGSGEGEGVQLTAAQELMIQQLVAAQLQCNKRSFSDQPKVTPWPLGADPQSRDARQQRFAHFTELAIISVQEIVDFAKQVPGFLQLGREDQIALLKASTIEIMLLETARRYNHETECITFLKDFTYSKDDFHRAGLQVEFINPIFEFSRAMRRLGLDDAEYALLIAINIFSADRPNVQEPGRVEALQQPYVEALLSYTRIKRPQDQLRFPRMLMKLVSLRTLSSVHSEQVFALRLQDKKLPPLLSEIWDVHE

cells [4] = assay: cells
Paired box protein Pax-8 = Paired box protein Pax-8 (Homo sapiens, UniProt Q06710); assay: PAX8 transcriptional activity inhibition in RMG-I – RMG-I cells, luciferase, cherry-pick, dose response (AID 687027); format: functional, cell-based;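 note: luciferase reporter driven by Pax8 target thyroperoxidase promoter measured by SteadyGlo luminescence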
[5] = IGROV1 cell killing – plate reader, dry powder samples, PAX8 inhibitor project, dose response (AID 743043); format: functional, cell-based; settings: IGROV-1
[6] = general cell-killing toxicity readout – plate reader, dry powder samples, cytotoxicity control for PAX8 inhibitor project, dose response (AID 743021); format: functional, cell-based
[7] = OVCAR8 cell viability loss – plate reader, dry powder samples, PAX8 project, dose response (AID 743197); format: functional, cell-based; settings: OVCAR-8
[8] = molecular target: T2, Zinc finger protein mex-5 (Caenorhabditis elegans, UniProt Q9XUB2); assay: potency of MEX-5 RNA-binding blockers – biochemical, C. elegans, fluorescence polarization, dose response (AID 1960)
T2 sequence (Q9XUB2 whole entry): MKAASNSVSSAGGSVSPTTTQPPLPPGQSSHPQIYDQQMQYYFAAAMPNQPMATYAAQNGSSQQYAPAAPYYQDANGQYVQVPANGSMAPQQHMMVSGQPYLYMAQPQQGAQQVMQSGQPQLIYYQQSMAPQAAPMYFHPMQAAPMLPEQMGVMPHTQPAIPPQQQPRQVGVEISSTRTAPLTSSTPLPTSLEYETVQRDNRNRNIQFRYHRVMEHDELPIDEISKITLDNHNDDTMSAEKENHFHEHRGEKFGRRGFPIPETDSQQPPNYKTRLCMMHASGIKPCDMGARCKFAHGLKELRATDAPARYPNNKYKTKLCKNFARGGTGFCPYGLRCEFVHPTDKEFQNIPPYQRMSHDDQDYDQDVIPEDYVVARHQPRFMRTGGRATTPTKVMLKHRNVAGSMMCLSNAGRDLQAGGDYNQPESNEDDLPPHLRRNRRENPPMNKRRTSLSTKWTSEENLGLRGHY

[9] = molecular target: T3, RNA-binding protein pos-1 (Caenorhabditis elegans, UniProt G5EF15); assay: disruptors of C. elegans POS-1 RNA interaction – biochemical, fluorescence polarization, dose response (AID 1964);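 note: purified POS-1 fused to maltose binding protein made in E. coli; potency of compounds blocking POS-1 binding to fluorescent RNA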
T3 sequence (G5EF15 whole entry): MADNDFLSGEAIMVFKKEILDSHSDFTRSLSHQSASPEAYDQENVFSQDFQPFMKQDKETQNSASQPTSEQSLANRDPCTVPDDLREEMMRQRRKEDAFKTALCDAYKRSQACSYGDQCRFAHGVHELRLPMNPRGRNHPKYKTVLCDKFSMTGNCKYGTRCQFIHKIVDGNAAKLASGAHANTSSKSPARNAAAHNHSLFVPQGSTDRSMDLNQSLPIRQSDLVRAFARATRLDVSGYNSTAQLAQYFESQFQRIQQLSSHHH

[10] = molecular target: T1, Oxysterols receptor LXR-beta; assay: LXR agonists, Gal4 luciferase reporter, dose response, counter-screen for ssDAF-12 agonist project, cell-based, luminescence, HEK293, S. stercoralis campaign (AID 720737); format: functional; settings: read-out: IC50 (the source's name)
[11] = Luminescence-based cell-based high throughput dose response assay to identify activators of the DAF-12 from the parasite S. stercoralis (ssDAF-12).; format: functional
[12] = general mammalian cell viability loss – activator set, cherry-pick, cytotoxicity control for miR-122 modulator project, dose response (AID 720690); format: functional, cell-based;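 note: HEK293T human cells scored for general mammalian cytotoxicity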
Major prion protein = Major prion protein (Homo sapiens, UniProt P04156); format: functional, cell-based
cells [13] = assay: cells; remark: listed apart in the source
Genome polyprotein = Genome polyprotein (dengue virus type 2, UniProt P29990); assay: flavivirus cap methylation enzyme inhibition – biochemical, confirmation dose response, primary screen (AID 588689); format: functional
Protein Tat = Protein Tat (Human immunodeficiency virus type 1 group M subtype B (isolate HXB2)(HIV-1), UniProt P04608); format: functional;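 note: tat binding to TAR RNA read out by fluorescence polarization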
[14] = molecular target: Heat shock protein HSP 90-alpha (Homo sapiens, UniProt P07900); assay: Luminescence-based dose response biochemical high throughput screening assay for inhibitors of the Heat Shock Protein 90 (HSP90). [Related pubchem assays: 1831 (Summary AID.), 1846 (Confirmation screen.), 1789 (Primary screen.)]

CO[C@H]1CN(C)C(=O)c2ccc(NC(=O)c3ccc(Oc4ccccc4)cc3)cc2OC[C@H](C)NC[C@H]1C
AC50 [1]: 6.48 µM (active) | AC50 [2]: 11.7 µM (active)

Oc1cc(-c2ccccc2)nc(N2CCN(Cc3ccccc3)CC2)n1
Ki (fMet-Leu-Phe receptor): > 66.7 µM (inactive)

Cc1ccc(CNC2=Nc3ccccc3CS2)cc1
EC50 [3]: > 67.5 µM (inactive) | EC50 (cells [4]): > 67.5 µM (inactive)

COc1ccc(-c2nc(-c3ccc(Br)o3)no2)cc1OC
Ki (fMet-Leu-Phe receptor): > 66.7 µM (inactive)

COc1ccc(NC(=O)N2CC(=O)N3[C@@H](CO)[C@@H](c4ccc(/C=C/c5ccccc5)cc4)[C@@H]3C2)cc1
AC50 (Paired box protein Pax-8): 5.52 µM (active) | AC50 [5]: 54.8 µM (active) | AC50 [6]: 7.22 µM (active) | AC50 [7]: 39.1 µM (active)

O=C(O)C(=O)/C(=C\c1ccsc1)c1ccc2ccccc2n1
EC50 [8]: 49 µM (active) | EC50 [9]: 27.9 µM (active) | EC50 [10]: > 67.6 µM (inactive) | IC50 [11]: > 67.6 µM (inactive)

COc1ccc(C#Cc2ccc3c(c2)O[C@H](CN(C)C(=O)CN2CCOCC2)[C@@H](C)CN([C@@H](C)CO)S3(=O)=O)cc1
AC50 [12]: 43.2 µM (active)

O=C(COc1ccc2ccccc2c1Br)NC(=S)Nc1cccc(CO)c1
IC50 (Major prion protein): 9.99 µM (active) | IC50 (cells [13]): 98.9 µM (inactive)

C[C@H]1CN([C@@H](C)CO)S(=O)(=O)c2ccc(C#CC3CCCCC3)cc2O[C@@H]1CN(C)C
AC50 [12]: 26.4 µM (active)

O=C(O)c1ccc(-n2nc(C(F)(F)F)c3c2-c2ccoc2CC3)cc1
IC50 (Genome polyprotein): 89 µM (active) | IC50 (Protein Tat): > 100 µM (active)

Cc1c(-c2nc(-c3ccc(C(F)(F)F)cc3)no2)n(C)oc1=O
IC50 [14]: 1.6 µM (active)

From ChEMBL document CHEMBL1201862, “PubChem BioAssay data set” (2004)
